Key:
BRK-BaF3 cells = assay: Cell antiproliferative activity assay (CCK-8), BRK-BaF3; format: cell-based; conditions: 72 h, CCK-8, 3 days incubation
Procedure: (§1) The activity of compounds against BRK kinase can be evaluated by their inhibition of the growth of the BRK kinase-stably transfected BaF3 cell line (BRK-BaF3) and wild-type BaF3 cells (WT-BaF3). […] The larger the ratio of the half-maximal growth inhibitory concentration (IC50) of a compound between WT-BaF3 and BRK-BaF3 cells, the better the selectivity of the compound.
(§2) BRK-BaF3, WT-BaF3, WEHI cell line, and breast cancer cell line T47D were cultured using RPMI 1640 Basal medium or DMEM (Dulbecco's Modified Eagle Medium) (Shanghai Peiyuan Biotechnology, L220KJ), supplemented with 10% FBS (Gibco, REF 10099-141C) and 1% P/S (Shanghai Peiyuan Biotechnology, S110JV), in an incubator (Thermo 3020) at 37°C with 5% CO2. Cell viability was above 95%. Cells were passaged at a 3:1 ratio every 3-4 days. For WT-BaF3 cells, WEHI cells were first cultured, and their culture supernatant was filtered through a 0.22 µm filter. This supernatant was added at 10% to the regular culture medium to supplement IL-3 required for WT-BaF3 cell proliferation, which served as the culture medium for WT-BaF3. For testing, cells were first collected and counted, then prepared into a cell suspension at 100,000 cells/mL and plated at 100 µL per well. Drug concentrations started from 10 µM and were serially diluted 3:1. After incubation for 3 days, 20 µL of CCK-8 detection reagent (Targetmol C005) was added to each well. After incubation for 2-4 hours, OD450 was measured using a microplate reader (Varioskan LUX, Thermo Scientific). After subtracting the blank background, the curve was fitted and the IC50 was calculated using XLfit software.

WT-BaF3 cells = assay: Cell antiproliferative activity assay (CCK-8), WT-BaF3 (broad-spectrum cytotoxicity); format: cell-based; conditions: 72 h; WT-BaF3 cells (IL-3 supplemented), CCK-8, 3 days incubation
Procedure: as §1, §2

Structure (SMILES) | IC50 (BRK-BaF3 cells) | IC50 (WT-BaF3 cells)
Cc1c[nH]c(=O)cc1-c1cc(C(C)C)c2nc(Nc3cnn(CCO)c3C)ncc2c1 [I-181] | 20 to 100 nM | > 2500 nM
Cc1nn(CCO)cc1Nc1ncc2cc(-c3cncnc3)cc(C(F)(F)F)c2n1 [I-151] | 20 to 100 nM | > 2500 nM
Cc1cc(Nc2ncc3cc(-c4nccnc4C)cc(C(C)C)c3n2)c(F)cc1P(C)(C)=O [II-21] | ≤ 20 nM | 500 to 2500 nM
Cc1nn(CCO)cc1Nc1ncc2cc(-c3cnccc3C#N)cc(C(C)C)c2n1 [I-34] | ≤ 20 nM | > 2500 nM
Cc1nn(CCO)cc1Nc1ncc2cc(-c3c(F)ccnc3Cl)cc(C(C)C)c2n1 [I-45] | ≤ 20 nM | > 2500 nM
Cc1nn(CCO)cc1Nc1ncc2cc(-c3c(C)ncnc3O)cc(C(C)C)c2n1 [I-130] | 20 to 100 nM | > 2500 nM
Cc1nn(CCN=S(C)(C)=O)cc1Nc1ncc2cc(-c3nccnc3C)cc(C(C)C)c2n1 [III-112] | 20 to 100 nM | > 2500 nM
Cc1nn(CCCO)cc1Nc1ncc2cc(-c3c(C)ncnc3C)cc(C(C)C)c2n1 [I-142] | ≤ 20 nM | > 2500 nM
Cc1cc(P(C)(C)=O)ncc1Nc1ncc2cc(-c3nccnc3C)cc(C(C)C)c2n1 [II-4] | 20 to 100 nM | > 2500 nM
Cc1ncnc(C)c1-c1cc(C(C)C)c2nc(Nc3ccc(P(C)(C)=O)cc3)ncc2c1 [II-50] | 20 to 100 nM | > 2500 nM
Cc1nn(C)cc1Nc1ncc2cc(-c3c(C)ncnc3C)cc(C(C)C)c2n1 [III-93] | ≤ 20 nM | > 2500 nM
Cc1ncnc(C)c1-c1cc(C(F)(F)F)c2nc(Nc3cnn(CCO)c3)ncc2c1 [I-149] | 20 to 100 nM | > 2500 nM
Cc1nn(C2COC2)cc1Nc1ncc2cc(-c3c(C)ncnc3C)cc(C(C)C)c2n1 [III-95] | 20 to 100 nM | 500 to 2500 nM
COc1cnccc1-c1cc(C(C)C)c2nc(Nc3cn(CCO)nc3C)ncc2c1 [I-13] | ≤ 20 nM | > 2500 nM
Cc1nn(CCO)cc1Nc1ncc2cc(-c3nnccc3C#N)cc(C3CC3)c2n1 [I-118] | 20 to 100 nM | > 2500 nM
Cc1nn(CCO)cc1Nc1ncc2cc(-c3nnccc3C#N)cc(C(C)C)c2n1 [I-117] | 20 to 100 nM | > 2500 nM
COc1cc(Nc2ncc3cc(-c4nccnc4C)cc(C(C)C)c3n2)cc(OC)c1P(C)(C)=O [II-73] | ≤ 20 nM | 500 to 2500 nM
Cc1nccnc1-c1cc(C(C)C)c2nc(Nc3cnn(CCO)c3)ncc2c1 [I-97] | ≤ 20 nM | 500 to 2500 nM
Cc1cnc(C)c(-c2cc(C(C)C)c3nc(Nc4cn(CCO)nc4C)ncc3c2)n1 [I-96] | 20 to 100 nM | > 2500 nM
Cc1nn(C2COC2)cc1Nc1ncc2cc(-c3c(C)ncnc3C)cc(C3CC3)c2n1 [III-98] | 20 to 100 nM | 500 to 2500 nM
Cc1cnn(C)c1-c1cc(C(C)C)c2nc(Nc3cn(CCO)nc3C)ncc2c1 [I-191] | ≤ 20 nM | 500 to 2500 nM
Cc1nccnc1-c1cc(C2CC2)c2nc(Nc3ccc(P(C)(C)=O)c(O)c3)ncc2c1 [II-75] | ≤ 20 nM | > 2500 nM

Structure (SMILES) | IC50 (BRK-BaF3 cells) | IC50 (WT-BaF3 cells)
COc1cc(P(C)(C)=O)ncc1Nc1ncc2cc(-c3nccnc3C)cc(C(C)C)c2n1 [II-5] | ≤ 20 nM | > 2500 nM
Cc1cncc(-c2cc(C(C)C)c3nc(Nc4cn(CCO)nc4C)ncc3c2)n1 [I-90] | ≤ 20 nM | 500 to 2500 nM
COc1cc(P(C)(C)=O)ccc1Nc1ncc2cc(-c3c(C)ncnc3C)cc(C(C)C)c2n1 [II-53] | 20 to 100 nM | > 2500 nM
Cc1cn(C)nc1-c1cc(C(C)C)c2nc(Nc3cn(CCO)nc3C)ncc2c1 [I-190] | ≤ 20 nM | 500 to 2500 nM
Cc1cncnc1-c1cc(C2CC2)c2nc(Nc3cn(CCO)nc3C)ncc2c1 [I-148] | ≤ 20 nM | > 2500 nM
Cc1nn(CC(N)=O)cc1Nc1ncc2cc(-c3nccnc3C)cc(C(C)C)c2n1 [III-111] | ≤ 20 nM | > 2500 nM
Cc1ncnc(C)c1-c1cc(C(C)C)c2nc(Nc3cn(CCO)nc3Cl)ncc2c1 [I-143] | 20 to 100 nM | > 2500 nM
Cc1nn(CCO)cc1Nc1ncc2cc(-c3c(C)ncnc3C)cc(C(C)C)c2n1 [I-128] | ≤ 20 nM | > 2500 nM
Cc1ccnc(C)c1-c1cc(C(F)(F)F)c2nc(Nc3cn(CCO)nc3C)ncc2c1 [I-77] | ≤ 20 nM | 500 to 2500 nM
COc1cc(Nc2ncc3cc(-c4nccnc4C)cc(C(C)C)c3n2)cnc1P(C)(C)=O [II-7] | 20 to 100 nM | 500 to 2500 nM
Cc1cc(Nc2ncc3cc(-c4nccnc4C)cc(C(C)C)c3n2)ncc1P(C)(C)=O [II-9] | 20 to 100 nM | > 2500 nM
Cc1nn(C2COC2)cc1Nc1ncc2cc(-c3nccnc3C)cc(C3CC3)c2n1 [III-113] | ≤ 20 nM | 500 to 2500 nM
Cc1nn(CCO)cc1Nc1ncc2cc(-c3cc(C#N)cnc3C)cc(C(C)C)c2n1 [I-42] | ≤ 20 nM | > 2500 nM
Cc1nn(CCO)cc1Nc1ncc2cc(-c3ncnc(C)c3Br)cc(C(C)C)c2n1 [I-139] | ≤ 20 nM | 500 to 2500 nM
Cc1nn(CCO)cc1Nc1ncc2cc(-c3cccnc3)cc(C(F)(F)F)c2n1 [I-75] | ≤ 20 nM | > 2500 nM
Cc1nc(P(C)(C)=O)ccc1Nc1ncc2cc(-c3nccnc3C)cc(C(C)C)c2n1 [II-1] | ≤ 20 nM | > 2500 nM
Cc1nccnc1-c1cc(C2CC2)c2nc(Nc3cc(O)c(P(C)(C)=O)cc3F)ncc2c1 [II-76] | ≤ 20 nM | > 2500 nM
Cc1nn(C)cc1Nc1ncc2cc(-c3cncc(F)c3C(N)=O)cc(C(C)C)c2n1 [III-127] | 20 to 100 nM | > 2500 nM
CCc1cc(P(C)(C)=O)ccc1Nc1ncc2cc(-c3nccnc3C)cc(C(C)C)c2n1 [II-15] | ≤ 20 nM | > 2500 nM
Cc1nn(CCO)cc1Nc1ncc2cc(-c3nccnc3C)cc(C3CC3)c2n1 [I-103] | ≤ 20 nM | 500 to 2500 nM
Cc1nn(CCO)cc1Nc1ncc2cc(-c3cc(F)cnc3F)cc(C(C)C)c2n1 [I-40] | ≤ 20 nM | > 2500 nM

Further lines, with some results ahead:

IC50 (BRK-BaF3 cells) | Structure (SMILES) | IC50 (WT-BaF3 cells)
≤ 20 nM | Cc1nn(CCO)cc1Nc1ncc2cc(-c3cncnc3C)cc(C(F)(F)F)c2n1 [I-152] | > 2500 nM
≤ 20 nM | Cc1nn(CC(C)(C)O)cc1Nc1ncc2cc(-c3nccnc3C)cc(C(C)C)c2n1 [I-101] | > 2500 nM
≤ 20 nM | Cc1nn(CCO)cc1Nc1ncc2cc(-c3cn(C)nc3C)cc(C(C)C)c2n1 [I-188] | 500 to 2500 nM
≤ 20 nM | Cc1cc(Nc2ncc3cc(-c4nccnc4C)cc(C(C)C)c3n2)cnc1P(C)(C)=O [II-6] | > 2500 nM
≤ 20 nM | Cc1nccnc1-c1cc(C(C)C)c2nc(Nc3cnn(C4CCN(C)CC4)c3C)ncc2c1 [III-107] | > 2500 nM
≤ 20 nM | Cc1cnccc1-c1cc(C(C)C)c2nc(Nc3cn(CCO)nc3C)ncc2c1 [I-12] | 500 to 2500 nM
≤ 20 nM | Cc1cnc(F)cc1-c1cc(C(C)C)c2nc(Nc3cn(CCO)nc3C)ncc2c1 [I-17] | 500 to 2500 nM
≤ 20 nM | CCN(C)CCn1cc(Nc2ncc3cc(-c4nccnc4C)cc(C(C)C)c3n2)c(C)n1 [III-109] | > 2500 nM
≤ 20 nM | Cc1ccnc(N)c1-c1cc(C(C)C)c2nc(Nc3cn(CCO)nc3C)ncc2c1 [I-50] | > 2500 nM
≤ 20 nM | Cc1nn(CCO)cc1Nc1ncc2cc(-c3ccncc3F)cc(C(C)C)c2n1 [I-11] | 500 to 2500 nM
≤ 20 nM | COc1cccnc1-c1cc(C(C)C)c2nc(Nc3cn(CCO)nc3C)ncc2c1 [I-4] | > 2500 nM
≤ 20 nM | Cc1nccnc1-c1cc(C2CC2)c2nc(Nc3ccc(P(C)(C)=O)cc3F)ncc2c1 [II-31] | > 2500 nM
≤ 20 nM | COCCN(C)CCn1cc(Nc2ncc3cc(-c4nccnc4C)cc(C(C)C)c3n2)c(C)n1 [III-110] | > 2500 nM
≤ 20 nM | Cc1nn(CCO)cc1Nc1ncc2cc(-c3cnccc3F)cc(C(C)C)c2n1 [I-31] | > 2500 nM
≤ 20 nM | Cc1nn(CC(C)(C)O)cc1Nc1ncc2cc(-c3c(C)ncnc3C)cc(C(C)C)c2n1 [I-144] | > 2500 nM
≤ 20 nM | Cc1ccc(C#N)cc1-c1cc(C(C)C)c2nc(Nc3cnn(CCO)c3C)ncc2c1 [I-170] | > 2500 nM
≤ 20 nM | Cc1nn(C2CCN(C)CC2)cc1Nc1ncc2cc(-c3nccnc3C)cc(C(C)C)c2n1 [III-106] | 500 to 2500 nM
≤ 20 nM | Cc1nn(CCO)cc1Nc1ncc2cc(-c3c(O)cccc3F)cc(C(C)C)c2n1 [I-155] | 500 to 2500 nM
≤ 20 nM | Cc1nn(C2COC2)cc1Nc1ncc2cc(-c3nccnc3C)cc(C(C)C)c2n1 [III-104] | > 2500 nM
≤ 20 nM | Cc1nccnc1-c1cc(C(C)C)c2nc(Nc3cn(CCO)nc3C(F)F)ncc2c1 [I-99] | 500 to 2500 nM
≤ 20 nM | Cc1nn(CCO)cc1Nc1ncc2cc(-c3nccnc3Cl)cc(C3CC3)c2n1 [I-104] | > 2500 nM
≤ 20 nM | Cc1nn(C)cc1Nc1ncc2cc(-c3c(C#N)cnn3C)cc(C(C)C)c2n1 [III-86] | > 2500 nM
